Source: US12497610B2, “Functional genomics using CRISPR-CAS systems for saturating mutagenesis of non-coding elements, compositions, methods, libraries and applications thereof” (THE BROAD INSTITUTE, INC., priority 2015, dated 2025)

Key:
Format in all cases: cell-based, human
[1] = tested on: YY1; assay: ChIP-ddPCR for YY1; details: ChIP-ddPCR around cut site vs non-targeting sgRNA
Description: (§1) Chromatin Immunoprecipitation (ChIP) for Histone Modifications and Transcription Factors
(§2) After 7 days of puromycin selection, A375 cells transduced with individual lentiCRISPRv2 sgRNAs were plated in T-225 flasks and grown to 70-90% confluence (6 days). At this point, chromatin fixation was initiated by adding formaldehyde directly to the growth media (final concentration 1%) and incubating at 37° C. for 10 minutes. The entire two-day ChIP procedure was performed using the Magna ChIP HiSens Chromatin Immunoprecipitation Kit (Millipore 1710460), as specified in the manufacturer's protocol. […]
(§3) Using BatchPrimer3, Applicants designed primers centered on the sgRNA target site with a target amplicon size of 80-120 bp (see table S4 for ChIP-ddPCR primers). Droplet digital PCR (ddPCR) reactions using EvaGreen (BioRad 1864034) were used to quantify changes between input, histone/TF ChIP, and IgG ChIP samples for A375 cells transduced with specific sgRNAs and untransduced A375 cells. […] Applicants calculated the percent change in ChIP signal after genome editing by normalizing each ChIP sample to its corresponding input sample and then comparing the normalized ChIP between A375s transduced with specific sgRNAs and untransduced (control) A375 cells.

[2] = tested on: CUL3; assay: ddPCR quantification of CUL3 expression in A375 cells transduced with individual sgRNAs; details: for CUL3 expression: A375, relative to non-targeting sgRNAs, result in words; for decrease in CUL3 expression: A375, 7 days post-transduction, normalized to non-targeting sgRNAs
Excerpt: Array Validation of Primary Screen Hits
For individual (array) validation of noncoding sgRNAs, Applicants first identified sgRNAs enriched in the top 5% of the library as given by the normalized log 2(Vemu/DMSO) read ratio. In order to have high confidence in these sgRNAs, Applicants used the minimum of the two infection replicates for the normalized log2 (Vemu/DMSO) read ratio. […] This ensures that putative noncoding functional elements were supported by the presence of at least 2 enriched sgRNAs. From this group, Applicants picked 25 sgRNAs distributed across different genomic regions for individual validation (see table S2 for a list of sgRNA sequences). Applicants also included 3 exon-targeting and 3 non-targeting sgRNAs to serve as positive and negative controls, respectively.
For each sgRNA, standard desalted short oligonucleotides (Integrated DNA Technologies) were annealed, phosphorylated and cloned into a lentiviral vector (lentiCRISPRv2, Addgene 52961) that contained Cas9 and an sgRNA cassette. For each sgRNA, A375 cells were transduced with lentiviral supernatants. After 24 hours, media was replaced with R10 with 1 ug/mL of puromycin. Viral volumes were titered such that 20-40% of cells survived after puromycin selection. After selection and expansion for 7 days in puromycin, cell were plated for DNA/RNA extraction, vemurafenib resistance, or ChIP assays.
RNA Extraction and ddPCR Quantification of CUL3 Expression
After 7 days of puromycin selection, A375 cells transduced with individual lentiCRISPRv2 sgRNAs were plated in 3 replicate wells (2×10^3 cells/well) in 96-well plates. After 4 days (70-90% confluent), RNA was extracted using a homemade version of a rapid lysis kit for quantitative PCR (similar to commercial “Cells-to-Ct”-style kits). This procedure (detailed below) enables rapid RNA extraction and qPCR/ddPCR readout from 96-well plates with minimal hands-on time.
Cells were first washed in 100 ul of chilled phosphate-buffered saline (PBS). Then, cells were incubated at room temperature for 8 minutes in 50 ul of Complete Lysis Buffer. The Complete Lysis Buffer consists of the Base Lysis Buffer with freshly added 100 ug/ml Proteinase K (Sigma P2308) and 300 U/mL DNase I (Sigma D2821). When adding DNase I, it is important to not vortex but mix only by gentle pipetting. The Base Lysis Buffer is made in RNAse-free water (ThermoFisher Scientific 10977015) with 10 mM Tris pH8 (Ambion AM9856), 0.5 mM MgCl2 (Sigma M1028), 0.44 mM CaCl2 (Sigma 21115), 10 uM DTT (Sigma 43816), 0.1% Triton X-114 (Calbiochem 648468), and 1.73 mN HCl (Sigma 318965) and should have a final pH of 7.8. The Base Lysis Buffer is stable at 4° C. for up to 6 months.
After the 8-minute incubation in Complete Lysis Buffer, 30 ul of the cell lysis was added to new PCR plates containing 3 ul of STOP buffer in each well to stop the lysis reaction. The STOP buffer is made in RNAse-free water with 1 mM Proteinase K inhibitor AAPF N-(Methoxysuccinyl)-Ala-Ala-Pro-Phe-chloromethyl ketone (SEQ ID NO: 174) (Millipore 539470), 90 mM EDTA (ThermoFisher Scientific 15575020), and 113 uM DTT (Sigma 43816). The final pH of the STOP buffer should be 8, adjusted appropriately with HCl and KOH. The STOP buffer is stable for up to 6 months at 20° C. The lysis reaction was mixed with the STOP buffer by pipetting up and down 5 times. Applicants then incubated the lysis and STOP buffer for at least 2 minutes but not more than 20 minutes. (Extra stopped lysis can be stored at −80° C. for up to 5 months.)
Applicants transferred 5 ul of the stopped lysis to new PCR plates with 20 ul of RT master mix. The RT master mix is from the RevertAid Reverse Transcriptase kit (ThermoFisher Scientific K1691) and is as described in the manufacturer's protocol but with an added oligo-dT primer. […]

[3] = tested on: sgRNA target sites near CUL3; assay: Deep sequencing after CRISPR mutagenesis (indel analysis at sgRNA target sites)
Description: Deep Sequencing after CRISPR Mutagenesis
After 7 days of puromycin selection, A375 cells transduced with individual lentiCRISPRv2 sgRNAs were plated in 2 replicate wells (2×10^3 cells/well) in 96-well plates. Cells were plated in either R10+DMSO or R10+vemurafenib (2 uM). After 4 days (70-90% confluent), Applicants extracted gDNA from all wells (Illumina/Epicentre QuickExtract QE09050) and performed amplification and deep sequencing as previously described (Shalem et al. 2014). Briefly, for each sgRNA target site, Applicants designed PCR primers to amplify genomic regions surrounding the site (100-200 bp amplicons) and to add universal handles for the second stage of amplification (see table S3 for all deep sequencing primers). Applicants then used a second PCR step to add sequences needed for Illumina sequencing and sample barcoding. Applicants pooled all samples together and sequenced them on a MiSeq using a 250 bp single-end read (Illumina MS-102-2002).
Custom Python scripts were used for barcode demultiplexing and insertion-deletion (indel) length measurement. To measure indel length and eliminate any potential off-target or primer-dimer reads, Applicants first identified our genomic (first PCR step) primers in each read. Applicants then checked that each read contained at least 5 bases beyond each of the genomic primers. Typically, 80-90% of demultiplexed reads matched this criterion. Reads matching this criterion were used to measure indel length by comparing distances between the identified primer-adjacent sequences with those in the reference sequence. Further multiple alignment analysis for specific sgRNAs was done using Geneious's iterative k-mer multiple alignment tool (Geneious 6.1.7).

[4] = tested on: CTCF; assay: ChIP-ddPCR for CTCF; details: ChIP-ddPCR at the site after editing
Description: as §1, §2, §3

[5] = tested on: ZNF263; assay: ChIP-ddPCR for ZNF263; details: ChIP-ddPCR vs non-targeting sgRNA
Description: as §1, §2, §3

[6] = tested on: JUN; assay: ChIP-ddPCR for JUN; details: ChIP-ddPCR compared with control cells
Description: as §1, §2, §3

[7] = tested on: FOS; assay: ChIP-ddPCR for FOS; details: ChIP-ddPCR compared with control cells
Description: as §1, §2, §3

Question: How did the “decrease of YY1 binding” value [1] turn out when “5′-UTR sg2: validation sgRNA GCGCTCCTCCGCGATGGCGG, SEQ ID NO 456, 5′ UTR (expressed or natural sequence)” was run?
Answer: 67%

Question: What about the CUL3 expression [2] of the same substance?
Answer: significantly decrease

Question: And the “indel mutations that damage a YY1 binding motif” value ([3]; A375, vemurafenib vs DMSO control, 4 days)?
Answer: more indel mutations that damage a YY1 binding motif

Question: “CTCF sg1: validation sgRNA GCCACAGCCATGCCCAGTOG, SEQ ID NO 446, 3′ of CUL3 (guide GCCACAGCCATGCCCAGTGG; expressed or natural sequence)” was tested. Which “decrease of CTCF occupancy” value [4] did it give?
Answer: 45%

Question: What about the “decrease in CUL3 expression” value [2] of the same substance?
Answer: 30%

Question: And the mean indel size ([3]; A375, deep sequencing of the site)?
Answer: −9.5 bp

Question: What about the “amplicons / alleles containing insertion-deletion (indel) mutations” value ([3]; A375 after 7 days selection) of the same substance?
Answer: 96%

Question: Which ZNF263 occupancy [5] does the source give for “Intron-sg1: validation sgRNA TCCGCGGCTGCTAGCAGCGC, SEQ ID NO 454, intron and promoter (expressed or natural sequence)” here?
Answer: significant decrease

Question: And the CUL3 expression [2]?
Answer: decrease in CUL3 expression

Question: For “Intron-sg2: validation sgRNA CGCGGAGTCCTCCCTGTGTG, SEQ ID NO 455, intron and promoter (expressed or natural sequence)”, which ZNF263 occupancy [5] is on record?
Answer: significant decrease

Question: What about the CUL3 expression [2] of the same substance?
Answer: decrease in CUL3 expression

Question: With “distal 3′ sg1: validation sgRNA AGOACACAGTCATAACCACA, SEQ ID NO 445, 3′ of CUL3 (guide AGCACACAGTCATAACCACA; expressed or natural sequence)” as the substance, how does the “decrease in CUL3 expression” value [2] read?
Answer: ~25%

Question: What about the JUN binding [6] of the same substance?
Answer: decreased

Question: What about the FOS binding [7] of the same substance?
Answer: decreased

Question: For “distal 3′ sg2: validation sgRNA GCAGCGTCCGGAGTTGGCAC, SEQ ID NO 444, 3′ of CUL3 (expressed or natural sequence)”, which “decrease in CUL3 expression” value [2] is on record?
Answer: ~25%

Question: What about the JUN binding [6] of the same substance?
Answer: decreased

Question: What about the FOS binding [7] of the same substance?
Answer: decreased
